Where “and” joins values, the source holds several entries; their conditions need not be identical. Equal values may be shown once. Inconclusive results and toxic doses are left out. No stated cut-off is given here; in the data, active means T/C of 150% or more; inactive means T/C below 125%.
Test system: L1210 leukemia ip in BDF1 mice, survival T/C
Experiment: NCI In Vivo Anticancer Drug Screen. Data for tumor model L1210 Leukemia (intraperitoneal) in B6D2F1 (BDF1) mice
Settings: endpoint: mean survival time, higher = longer survival
Outline: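 Read-out is survival time, reported as the treated-group measurement over the vehicle-control measurement.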

[1] = dose: 50.0 mg/kg/injection, schedule: Q04DX003 (ip), vehicle: saline
[2] = dose: 100.0 mg/kg/injection, schedule: Q04DX003 (ip), vehicle: saline
[3] = dose: 200.0 mg/kg/injection, schedule: Q04DX003 (ip), vehicle: saline
[4] = dose: 25.0 mg/kg/injection, schedule: Q04DX003 (ip), vehicle: saline
[5] = dose: 100.0 mg/kg/injection, schedule: Q01DX009 (ip), vehicle: saline with Tween-80
[6] = dose: 200.0 mg/kg/injection, schedule: Q01DX009 (ip), vehicle: saline with Tween-80
[7] = dose: 100.0 mg/kg/injection, schedule: Q04DX003 (ip), vehicle: Klucel (hydroxypropylcellulose) (HPC)
[8] = dose: 200.0 mg/kg/injection, schedule: Q04DX003 (ip), vehicle: Klucel (hydroxypropylcellulose) (HPC)
[9] = dose: 400.0 mg/kg/injection, schedule: Q04DX003 (ip), vehicle: Klucel (hydroxypropylcellulose) (HPC)
[10] = dose: 50.0 mg/kg/injection, schedule: Q01DX001 (ip), vehicle: carboxymethylcellulose (CMC)
[11] = dose: 12.5 mg/kg/injection, schedule: Q04DX003 (ip), vehicle: saline
[12] = dose: 100.0 mg/kg/injection, schedule: Q01DX009 (ip), vehicle: saline
[13] = dose: 200.0 mg/kg/injection, schedule: Q01DX009 (ip), vehicle: saline
[14] = dose: 100.0 mg/kg/injection, schedule: Q01DX009 (ip), vehicle: Klucel (hydroxypropylcellulose) (HPC)
[15] = dose: 200.0 mg/kg/injection, schedule: Q01DX009 (ip), vehicle: Klucel (hydroxypropylcellulose) (HPC)
[16] = dose: 400.0 mg/kg/injection, schedule: Q01DX009 (ip), vehicle: Klucel (hydroxypropylcellulose) (HPC)
[17] = dose: 100.0 mg/kg/injection, schedule: Q01DX001 (ip), vehicle: saline
[18] = dose: 200.0 mg/kg/injection, schedule: Q01DX001 (ip), vehicle: saline
[19] = dose: 400.0 mg/kg/injection, schedule: Q01DX001 (ip), vehicle: saline

Measured: T/C

CC(C)Sc1nn2nnnc2c2ccccc12
inactive: [1] 94 % of control | [2] 97 % of control | [3] 103 % of control

C#CC(N)=O
inactive: dose: 3.0 mg/kg/injection, schedule: Q01DX009 (ip), vehicle: saline 100 % of control | dose: 6.0 mg/kg/injection, schedule: Q01DX009 (ip), vehicle: saline 96 % of control | dose: 12.0 mg/kg/injection, schedule: Q01DX009 (ip), vehicle: saline 94 % of control | [4] 107 % of control | [1] 106 % of control | dose: 75.0 mg/kg/injection, schedule: Q01DX001 (ip), vehicle: saline 107 % of control

Oc1c2ccsc2cc2ccsc12
inactive: dose: 100.0 mg/kg/injection, schedule: Q01DX001 (ip), vehicle: saline with Tween-80 94 % of control | dose: 200.0 mg/kg/injection, schedule: Q01DX001 (ip), vehicle: saline with Tween-80 94 % of control | dose: 400.0 mg/kg/injection, schedule: Q01DX001 (ip), vehicle: saline with Tween-80 91 % of control

CC(C)C(=O)Nc1cccc(O)c1
inactive: [5] 90 % of control | [6] 90 % of control

CC(C)CCOC(=O)C(O)C(C)(Cl)c1ccccc1 (stereo unspecified)
inactive: dose: 100.0 mg/kg/injection, schedule: Q04DX002 (ip), vehicle: Klucel (hydroxypropylcellulose) (HPC) 111 % of control | dose: 200.0 mg/kg/injection, schedule: Q04DX002 (ip), vehicle: Klucel (hydroxypropylcellulose) (HPC) 91 % of control | dose: 400.0 mg/kg/injection, schedule: Q04DX002 (ip), vehicle: Klucel (hydroxypropylcellulose) (HPC) 100 % of control

c1ccc(-c2nc3ccccc3c3ccccc23)cc1
inactive: [7] 101 % of control | [8] 103 % of control | [9] 106 % of control

CCOP(=O)(Nc1ccc2c(c1)C(=O)c1ccccc1-2)OCC
inactive: [10] 97 % of control | dose: 100.0 mg/kg/injection, schedule: Q01DX001 (ip), vehicle: carboxymethylcellulose (CMC) 103 % of control | dose: 200.0 mg/kg/injection, schedule: Q01DX001 (ip), vehicle: carboxymethylcellulose (CMC) 100 % of control | dose: 400.0 mg/kg/injection, schedule: Q01DX001 (ip), vehicle: carboxymethylcellulose (CMC) 103 % of control

C=CCN(CC=C)P(=O)(OCC)OCC
inactive: [11] 105 % of control | dose: 25.0 mg/kg/injection, schedule: Q01DX009 (ip), vehicle: saline 97 % of control and 100 % of control | [4] 112 % of control | dose: 50.0 mg/kg/injection, schedule: Q01DX009 (ip), vehicle: saline 98 % of control and 105 % of control | [1] 108 % of control | [12] 104 % of control and 91 % of control | [2] 105 % of control | [13] 97 % of control and 92 % of control | [3] 94 % of control

Cc1ccc(SSc2ccc(C)cc2[N+](=O)[O-])c([N+](=O)[O-])c1
inactive: [14] 92 % of control | [7] 97 % of control | [15] 91 % of control | [8] 90 % of control | [16] 90 % of control | [9] 94 % of control

O=C(O)/C=C/C(=O)Nc1cc(Cl)cc2c1-c1c(Cl)cc(Cl)cc1C2O (stereo unspecified)
inactive: [7] 98 % of control | [8] 92 % of control | [9] 108 % of control

CNC(=O)n1cnc(N)n1 (tested in a mixture with another compound)
inactive: [14] 96 % of control | [15] 103 % of control

CCOc1ccccc1C(N)=O
inactive: [12] 96 % of control | dose: 100.0 mg/kg/injection, schedule: Q04DX003 (ip), vehicle: other 96 % of control | [13] 107 % of control | dose: 200.0 mg/kg/injection, schedule: Q04DX003 (ip), vehicle: other 104 % of control | dose: 400.0 mg/kg/injection, schedule: Q01DX009 (ip), vehicle: saline 102 % of control | dose: 400.0 mg/kg/injection, schedule: Q04DX003 (ip), vehicle: other 105 % of control

N#CC1(NC(Cc2ccccc2)c2ccccc2)CCCCCCCCCCC1 (stereo unspecified)
inactive: dose: 100.0 mg/kg/injection, schedule: Q04DX002 (ip), vehicle: saline with Tween-80 101 % of control | dose: 200.0 mg/kg/injection, schedule: Q04DX002 (ip), vehicle: saline with Tween-80 94 % of control | dose: 400.0 mg/kg/injection, schedule: Q04DX002 (ip), vehicle: saline with Tween-80 97 % of control

CC1CN1S(=O)(=O)N1CC1C (stereo unspecified)
inactive: [10] 111 % of control

O=S(=O)(Nc1ccc(NS(=O)(=O)c2ccccc2)c(S(=O)(=O)c2ccccc2)c1)c1ccccc1
inactive: [5] 100 % of control | [6] 98 % of control | dose: 400.0 mg/kg/injection, schedule: Q01DX009 (ip), vehicle: saline with Tween-80 94 % of control

O=C(C(Cl)(Cl)CO)C(Cl)(Cl)CO
inactive: [17] 91 % of control | [18] 94 % of control | [19] 92 % of control

CCC(=O)OC1CC2C3CCC4=CC(=O)CCC4(C)C3CCC2(C)C1OC(=O)CC (stereo unspecified)
inactive: [14] 98 % of control | [7] 95 % of control | [15] 98 % of control | [8] 95 % of control | [16] 97 % of control | [9] 101 % of control

CCC(=O)OCc1ccc(Cl)cc1
inactive: [14] 97 % of control | [7] 101 % of control | [15] 95 % of control | [8] 96 % of control | [16] 94 % of control | [9] 95 % of control

Nc1nc2nc(C(=O)O)cnc2c(=O)[nH]1
inactive: [11] 95 % of control | [4] 102 % of control

COc1ccccc1CN1CCCN(Cc2ccccc2OC)C1c1cc(Cl)cc(Cl)c1O
inactive: dose: 50.0 mg/kg/injection, schedule: Q01DX001 (ip), vehicle: saline 98 % of control | [17] 111 % of control | [18] 104 % of control | [19] 98 % of control

O=[N+]([O-])c1ccc(SCCCN2CCCCC2)c([N+](=O)[O-])c1
inactive: [10] 96 % of control

O=C(Nc1ccc(Cl)cc1Cl)Sc1ccc(Cl)cc1
inactive: [14] 91 % of control | [15] 96 % of control | [16] 88 % of control

O=C(O)CC/C(=N/O)c1ccccc1
inactive: dose: 50.0 mg/kg/injection, schedule: Q01DX009 (ip), vehicle: Klucel (hydroxypropylcellulose) (HPC) 93 % of control | [14] 98 % of control | [15] 92 % of control

O=[N+]([O-])c1cc(C(F)(F)F)ccc1Cl
inactive: [12] 102 % of control | [13] 97 % of control

CCCCCCC(=O)C(C)C
inactive: [14] 93 % of control | [7] 89 % of control | [15] 96 % of control | [8] 88 % of control | [16] 106 % of control | [9] 98 % of control

CCc1cc(Cl)ccc1OCC(=O)O
inactive: [5] 97 % of control | [6] 105 % of control

CC1(C)[C@H](C(=O)O)CC[C@]1(C)C(=O)O
inactive: dose: 100.0 mg/kg/injection, schedule: Q01DX001 (ip), vehicle: other 103 % of control | dose: 200.0 mg/kg/injection, schedule: Q01DX001 (ip), vehicle: other 103 % of control | dose: 400.0 mg/kg/injection, schedule: Q01DX001 (ip), vehicle: other 105 % of control

O=C(Nc1ccc(Br)cc1)c1nc(Br)[nH]c1Br
inactive: dose: 6.25 mg/kg/injection, schedule: Q01DX009 (ip), vehicle: saline with Tween-80 94 % of control | dose: 12.5 mg/kg/injection, schedule: Q01DX009 (ip), vehicle: saline with Tween-80 89 % of control | dose: 25.0 mg/kg/injection, schedule: Q01DX009 (ip), vehicle: saline with Tween-80 89 % of control

— PubChem BioAssay AID248 (DTP/NCI, 2004)
